Entries after “also recorded” stand apart in the source; their conditions may differ. Like-named read-outs stand apart in the source and are kept apart here.
Tests used:
[1] = molecular target: human recombinant FGFR2 catalytic domain protein (amino acid 400-821) (Homo sapiens (Human), UniProt P21802); assay: FGFR2 activity inhibition test (HTRF kinase assay); assay type: biochemical; details: 50 μM ATP
Protocol: (§1) The effect of the compounds of the present invention on the in vitro activity of FGFR was assessed by measuring the phosphorylation level of the substrate in a kinase reaction using the HTRF kinase assay kit (Table 1).
(§2) If the IC50 value of a compound is very low, the initial concentration of the compound can be lowered.
(§3) The IC50 value of the compound was calculated from the 10 concentration points using the XLfit software in Excel by the following formula: Y=Bottom+(Top−Bottom)/(1+10^((log IC50−X)*slope factor))
(§4) Where Y is the percentage of inhibition, Bottom is the bottom platform value of the S-curve, Top is the top platform value of the S-curve, X is the logarithm of the concentration of the compound to be tested, and slope factor is the slope coefficient of the curve.

[2] = tested on: RT4 bladder cancer cell line; assay: Inhibition on the proliferation of RT4 cells (luminescent cell viability assay); assay type: cell-based; details: Homo sapiens, RT-4, 72 hours
Protocol: (§5) CellTilter-Glo reagent (Promega, Cat. No. G7572) consists of CTG lyophilized powder and CTG buffer. Before use, the lyophilized powder needs to be dissolved in the buffer.
(§6) After overnight incubation, 3 μL of DMEM diluted compound was added to each well, which was then gently centrifuged to mix well, and then the 384-well plate was placed in a 37° C., 5% CO2 incubator to continue the culture, and after 72 hours, the plate was taken out and allowed to stand at room temperature for 30 minutes, next added 15 μL of CTG reagent per well, which was warmed up to room temperature, the plate was shaken gently on a shaker for 3 minutes to ensure sufficient cell lysis, allowed to stand 10 minutes to stabilize the luminescence signal, and then read the luminescence signal with EnVision (Perkin Elmer).
as §4
The effect of the compounds of the present invention on cell proliferation of the RT4 bladder cancer cell line was assessed using a luminescent cell viability assay (Table 2).
(§7) For the experimental method, please refer to the method for determining the inhibition on the proliferation of Hep3B cells.

[3] = molecular target: human recombinant FGFR1 catalytic domain protein (amino acid 308-731) (Homo sapiens (Human), UniProt P11362); assay: FGFR1 activity inhibition test (HTRF kinase assay); assay type: biochemical; details: 40 μM ATP
Protocol: as §1, §2, §3, §4

[4] = tested on: SNU-16 gastric cancer cell line; assay: Inhibition on the proliferation of SNU-16 cells (luminescent cell viability assay); assay type: cell-based; details: Homo sapiens, 72 hours
Protocol: as §5, §6, §4
The effect of the compounds of the present invention on cell proliferation of SNU-16 gastric cancer cell line was assessed using a luminescent cell viability assay (Table 2).
as §7

[5] = molecular target: human recombinant FGFR4 catalytic domain protein (amino acid 460-802) (Homo sapiens (Human), UniProt P22455); assay: FGFR4 activity inhibition test (HTRF kinase assay); assay type: biochemical; details: 90 μM ATP
Protocol: as §1, §2, §3, §4

Hep3B hepatoma cell line = assay: Inhibition on the proliferation of Hep3B cells (luminescent cell viability assay); assay type: cell-based; details: Homo sapiens, 72 hours
Protocol: The effect of the compounds of the present invention on cell proliferation of Hep3B hepatoma cell line was assessed using a luminescent cell viability assay (Table 2).
as §5, §6, §4

[6] = molecular target: human recombinant FGFR3 catalytic domain protein (amino acid 399-806) (Homo sapiens (Human), UniProt P22607); assay: FGFR3 activity inhibition test (HTRF kinase assay); assay type: biochemical; details: 90 μM ATP
Protocol: as §1, §2, §3, §4

[7] = tested on: FGFR2-overexpressed SNU-16 gastric cancer cell line derived xenograft tumors; assay type: in vivo; details: for TGI % (tumor growth inhibition) / mean tumor size: day 25
Protocol: The cells were harvested in 90% confluence and no less than 90% viability, and then counted. […] Mice were inoculated subcutaneously into the right flank with 200 uL of 8×10^6 SNU-16 cells resuspended in 50% Matrigel (purchased from Corning). […] Dosing was initiated on day 0 and effects on tumor growth were evaluated by measuring the percentage of tumor growth inhibition (TGI) at the end of the study. Tolerability was assessed by body weight loss, lethality, and clinical signs of adverse treatment-related side effects. Tumor volume and body weight were measured twice per week during the administration period. The percentage of TGI was determined on day 25 after treatment. The difference between the mean value of tumor volume in the treatment group and that in the vehicle group was analyzed for significance using one-way ANOVA (followed by Dennett's test) at each time point and a P<0.05 was considered to be statistically significant.

Sequence of human recombinant FGFR1 catalytic domain protein (amino acid 308-731) (P11362 other isoform, or with tags, fused parts or gaps): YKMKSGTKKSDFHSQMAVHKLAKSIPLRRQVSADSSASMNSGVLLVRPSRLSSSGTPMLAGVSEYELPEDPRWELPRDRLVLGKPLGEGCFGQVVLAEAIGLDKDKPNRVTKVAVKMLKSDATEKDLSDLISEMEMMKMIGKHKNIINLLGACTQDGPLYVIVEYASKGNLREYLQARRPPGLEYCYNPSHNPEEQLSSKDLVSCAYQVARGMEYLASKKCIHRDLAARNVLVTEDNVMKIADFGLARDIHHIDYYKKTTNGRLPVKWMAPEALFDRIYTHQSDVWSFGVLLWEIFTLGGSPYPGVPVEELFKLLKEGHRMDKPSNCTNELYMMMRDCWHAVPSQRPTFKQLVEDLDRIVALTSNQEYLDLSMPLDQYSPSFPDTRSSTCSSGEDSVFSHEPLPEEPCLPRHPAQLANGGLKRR
Sequence of human recombinant FGFR3 catalytic domain protein (amino acid 399-806) (P22607 399-806): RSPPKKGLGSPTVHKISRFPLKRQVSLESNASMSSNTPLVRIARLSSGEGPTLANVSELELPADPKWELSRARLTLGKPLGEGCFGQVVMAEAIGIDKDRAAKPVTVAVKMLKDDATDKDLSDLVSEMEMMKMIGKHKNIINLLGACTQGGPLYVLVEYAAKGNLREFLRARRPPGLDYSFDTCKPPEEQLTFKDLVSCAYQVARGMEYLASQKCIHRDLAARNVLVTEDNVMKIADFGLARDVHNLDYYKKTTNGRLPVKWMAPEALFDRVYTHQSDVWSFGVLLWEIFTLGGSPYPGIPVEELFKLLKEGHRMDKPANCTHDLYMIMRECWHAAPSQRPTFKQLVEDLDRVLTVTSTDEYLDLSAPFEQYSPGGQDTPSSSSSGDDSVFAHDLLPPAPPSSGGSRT
Sequence of human recombinant FGFR4 catalytic domain protein (amino acid 460-802) (P22455 460-802): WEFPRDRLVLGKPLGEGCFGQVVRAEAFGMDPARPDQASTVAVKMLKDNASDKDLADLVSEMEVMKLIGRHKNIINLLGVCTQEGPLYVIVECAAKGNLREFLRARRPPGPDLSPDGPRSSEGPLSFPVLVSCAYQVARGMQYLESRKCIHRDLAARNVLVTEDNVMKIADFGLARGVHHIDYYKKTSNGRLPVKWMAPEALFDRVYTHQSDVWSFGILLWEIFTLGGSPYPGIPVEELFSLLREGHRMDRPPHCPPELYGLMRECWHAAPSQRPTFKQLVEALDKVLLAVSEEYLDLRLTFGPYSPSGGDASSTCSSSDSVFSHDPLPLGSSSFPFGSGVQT
Sequence of human recombinant FGFR2 catalytic domain protein (amino acid 400-821) (P21802 400-821): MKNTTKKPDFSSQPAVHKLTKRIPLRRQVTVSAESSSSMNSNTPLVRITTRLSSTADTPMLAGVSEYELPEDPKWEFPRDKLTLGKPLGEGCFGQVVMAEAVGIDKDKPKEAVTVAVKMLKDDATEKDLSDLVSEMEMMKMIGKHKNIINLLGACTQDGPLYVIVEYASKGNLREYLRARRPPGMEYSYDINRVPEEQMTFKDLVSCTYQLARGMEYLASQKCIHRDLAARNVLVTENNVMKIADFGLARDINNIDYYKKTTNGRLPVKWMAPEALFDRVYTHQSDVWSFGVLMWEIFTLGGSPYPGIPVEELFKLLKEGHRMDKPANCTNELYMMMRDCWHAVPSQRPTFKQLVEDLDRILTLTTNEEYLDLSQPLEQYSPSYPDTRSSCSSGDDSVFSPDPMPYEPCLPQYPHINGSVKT

## C=CC(=O)N1CC[C@H](n2nc(C#Cc3cc(OC)cc(OC)c3)c(C(N)=O)c2NCCO)C1 [Compound 29, (S)-1-(1-acryloylpyrrolidin-3-yl)-3-((3,5-dimethoxyphenyl)ethynyl)-5-((2-hydroxyethyl)amino)-1H-pyrazole-4-carboxamide]
[1]
  IC50: < 10 nM
[2]
  IC50: < 10 nM
[3]
  IC50: 10 to 100 nM
[4]
  IC50: < 10 nM
[5]
  IC50: 10 to 100 nM
Hep3B hepatoma cell line
  IC50: < 10 nM
[6]
  IC50: < 10 nM

## C=CC(=O)N1CC[C@H](n2nc(C#Cc3cc(OC)cc(OC)c3)c(C(N)=O)c2NCCCN2CCOCC2)C1 [Compound 30, (S)-1-(1-acryloylpyrrolidin-3-yl)-3-((3,5-dimethoxyphenyl)ethynyl)-5-((3-morpholinopropyl)amino)-1H-pyrazole-4-carboxamide]
[1]
  IC50: < 10 nM
[2]
  IC50: < 10 nM
[3]
  IC50: 10 to 100 nM
[4]
  IC50: < 10 nM
[5]
  IC50: 10 to 100 nM
Hep3B hepatoma cell line
  IC50: 10 to 100 nM
[6]
  IC50: < 10 nM

## C=CC(=O)N1CC[C@H](n2nc(C#Cc3cc(OC)cc(OC)c3)c(C(N)=O)c2N)C1 [Compound 7, (S)-1-(1-acryloylpyrrolidin-3-yl)-5-amino-3-((3,5-dimethoxyphenyl)ethynyl)-1H-pyrazole-4-carboxamide]
[1]
  IC50: < 10 nM
[2]
  IC50: < 10 nM
[3]
  IC50: < 10 nM
[4]
  IC50: < 10 nM
[5]
  IC50: < 10 nM
Hep3B hepatoma cell line
  IC50: < 10 nM
[6]
  IC50: < 10 nM

## C=CC(=O)N1CC[C@H](n2nc(C#Cc3cc(OC)cc(OC)c3F)c(C(N)=O)c2N)C1 [Compound 17, (S)-1-(1-acryloylpyrrolidin-3-yl)-5-amino-3-((2-fluoro-3,5-dimethoxyphenyl)ethynyl)-1H-pyrazole-4-carboxamide]
[1]
  IC50: < 10 nM
[2]
  IC50: < 10 nM
[3]
  IC50: < 10 nM
[4]
  IC50: < 10 nM
[5]
  IC50: < 10 nM
Hep3B hepatoma cell line
  IC50: < 10 nM
[6]
  IC50: < 10 nM

## C=CC(=O)N1CC[C@H](n2cc(C(N)=O)c(C#Cc3cc(OC)cc(OC)c3)n2)C1 [Compound 1, (S)-1-(1-acryloylpyrrolidin-3-yl)-3-((3,5-dimethoxyphenyl)ethynyl)-1H-pyrazole-4-carboxamide]
[1]
  IC50: 10 to 100 nM
[2]
  IC50: 10 to 100 nM
[3]
  IC50: 10 to 100 nM
[4]
  IC50: 10 to 100 nM
[5]
  IC50: 10 to 100 nM
Hep3B hepatoma cell line
  IC50: 10 to 100 nM
[6]
  IC50: 10 to 100 nM

## C=CC(=O)N1CC[C@H](n2nc(C#Cc3cc(OC)cc(OC)c3)c(C(N)=O)c2NC)C1 [Compound 21, (S)-1-(1-acryloylpyrrolidin-3-yl)-3-((3,5-dimethoxyphenyl)ethynyl)-5-(methylamino)-1H-pyrazole-4-carboxamide]
[1]
  IC50: < 10 nM
[7]; 0.3 mg/kg oral BID for 25 days
  TGI % (tumor growth inhibition): 91.0%
  mean tumor size: 240 mm^3
[7]; 1 mg/kg oral BID for 25 days
  TGI % (tumor growth inhibition): 88.3%
  mean tumor size: 261 mm^3
[7]; 3 mg/kg oral BID for 25 days
  TGI % (tumor growth inhibition): 95.9%
  mean tumor size: 200 mm^3
[7]; 10 mg/kg BID
  locomotor activities: without significant decrease of locomotor activities
  mean body weight loss: 11%
[7]; 10 mg/kg oral BID for 25 days
  TGI % (tumor growth inhibition): 108%
  mean tumor size: 103 mm^3
[7]; 0.3, 1, 3 and 10 mg/kg oral BID
  anti-tumor activity (overall): dose-dependently reduced tumor size; also recorded: marked anti-tumor activities
[7]; 3, 1 and 0.3 mg/kg BID, during the study
  body weight loss: no body weight loss
[7]; 3, 1 and 0.3 mg/kg BID, tumor-bearing animals
  tolerability: well-tolerated
[7]; tumor-bearing animals, summary of study
  tolerability (overall summary): well-tolerated
[2]
  IC50: < 10 nM
[3]
  IC50: < 10 nM
[4]
  IC50: < 10 nM
[5]
  IC50: < 10 nM
Hep3B hepatoma cell line
  IC50: < 10 nM
[6]
  IC50: < 10 nM

## C=CC(=O)N1CC[C@H](n2nc(C#Cc3cc(OC)cc(OC)c3F)c(C(N)=O)c2NC)C1 [Compound 22, (S)-1-(1-acryloylpyrrolidin-3-yl)-3-((2-fluoro-3,5-dimethoxyphenyl)ethynyl)-5-(methylamino)-1H-pyrazole-4-carboxamide]
[1]
  IC50: < 10 nM
[2]
  IC50: < 10 nM
[3]
  IC50: < 10 nM
[4]
  IC50: < 10 nM
[5]
  IC50: < 10 nM
Hep3B hepatoma cell line
  IC50: < 10 nM
[6]
  IC50: < 10 nM

## C=CC(=O)N1CC[C@H](n2nc(C#Cc3cc(OC)cc(OC)c3)c(C(N)=O)c2NCC2CC2)C1 [Compound 26, (S)-1-(1-acryloylpyrrolidin-3-yl)-5-((cyclopropylmethyl)amino)-3-((3,5-dimethoxyphenyl)ethynyl)-1H-pyrazole-4-carboxamide]
[1]
  IC50: < 10 nM
[2]
  IC50: < 10 nM
[3]
  IC50: < 10 nM
[4]
  IC50: < 10 nM
[5]
  IC50: < 10 nM
Hep3B hepatoma cell line
  IC50: 10 to 100 nM
[6]
  IC50: < 10 nM

## C=CC(=O)N1CC[C@H](n2nc(C#Cc3cc(Cl)ccc3F)c(C(N)=O)c2NC)C1 [Compound 23, (S)-1-(1-acryloylpyrrolidin-3-yl)-3-((5-chloro-2-fluorophenyl)ethynyl)-5-(methylamino)-1H-pyrazole-4-carboxamide]
[1]
  IC50: < 10 nM
[2]
  IC50: 10 to 100 nM
[3]
  IC50: 10 to 100 nM
[4]
  IC50: < 10 nM
[5]
  IC50: 10 to 100 nM
Hep3B hepatoma cell line
  IC50: < 10 nM
[6]
  IC50: < 10 nM

From patent US11572353B2, “Alkynyl-substituted heterocyclic compound, preparation method therefor and medical use thereof” (BEIJING INNOCARE PHARMA TECH CO., LTD., priority 2016, dated 2023)
